Reference: patent US20150031668A1, “CHROMAN DERIVATIVES AS TRPM8 INHIBITORS” (AMGEN INC., priority 2013, published 2015)

Biological target: T1, human TRPM8 (Homo sapiens, UniProt Q7Z2W7)
T1 construct: expressed in transfected cells; host or cells: Chinese hamster ovary (CHO) cells, T-REx tetracycline-inducible expression system (Invitrogen); co-transfected with pcDNA3.1 aequorin
Test: Luminescence readout assay for measuring intracellular calcium (aequorin, CHO cells expressing human TRPM8; icilin, L-menthol or cold activation)
Type: cell-based
Conditions: CHO cells expressing human TRPM8, icilin activation (1 μM), aequorin luminescence; read-out: hTRPM8 IC50
Procedure, shortened: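 Activation was by 1 μM icilin, 100 μM L-menthol (test compound 2.5 min ahead) or cold buffer below 10° C (compound 1 min ahead). Calcium rise measured as aequorin luminescence in CHO cells with tetracycline-inducible human TRPM8.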

T1 sequence (Q7Z2W7 whole entry): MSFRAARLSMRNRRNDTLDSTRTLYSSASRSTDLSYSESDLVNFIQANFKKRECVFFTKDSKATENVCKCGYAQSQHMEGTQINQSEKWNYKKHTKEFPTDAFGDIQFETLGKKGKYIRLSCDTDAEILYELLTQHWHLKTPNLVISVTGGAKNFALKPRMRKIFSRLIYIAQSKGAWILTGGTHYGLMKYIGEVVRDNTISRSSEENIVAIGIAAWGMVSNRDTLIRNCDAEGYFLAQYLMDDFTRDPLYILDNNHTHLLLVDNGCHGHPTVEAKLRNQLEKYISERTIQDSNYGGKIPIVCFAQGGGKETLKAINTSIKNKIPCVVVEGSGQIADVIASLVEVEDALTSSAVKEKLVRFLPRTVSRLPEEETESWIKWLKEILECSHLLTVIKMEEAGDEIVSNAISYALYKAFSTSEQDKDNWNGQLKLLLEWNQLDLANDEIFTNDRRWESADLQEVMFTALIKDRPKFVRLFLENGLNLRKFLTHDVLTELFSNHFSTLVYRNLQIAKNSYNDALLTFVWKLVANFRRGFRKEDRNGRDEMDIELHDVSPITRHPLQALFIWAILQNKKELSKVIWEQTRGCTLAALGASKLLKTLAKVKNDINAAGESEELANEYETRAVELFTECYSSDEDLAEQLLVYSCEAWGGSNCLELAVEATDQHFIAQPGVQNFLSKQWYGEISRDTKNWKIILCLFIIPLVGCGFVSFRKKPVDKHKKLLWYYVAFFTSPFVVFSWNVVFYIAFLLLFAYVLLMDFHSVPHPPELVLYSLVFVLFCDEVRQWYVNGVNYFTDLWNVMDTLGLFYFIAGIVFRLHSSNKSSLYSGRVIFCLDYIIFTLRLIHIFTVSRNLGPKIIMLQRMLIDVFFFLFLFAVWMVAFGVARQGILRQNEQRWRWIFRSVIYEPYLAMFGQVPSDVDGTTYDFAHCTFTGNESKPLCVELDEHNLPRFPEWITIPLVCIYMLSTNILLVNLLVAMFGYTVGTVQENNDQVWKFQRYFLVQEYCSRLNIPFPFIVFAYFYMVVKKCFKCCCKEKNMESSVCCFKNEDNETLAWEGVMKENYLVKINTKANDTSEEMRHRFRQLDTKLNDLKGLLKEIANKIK

Row | SMILES | IC50
1 | C[C@H](NC(=O)N[C@]1(c2ccc(C(F)(F)F)cc2)CCOc2cccnc21)C(F)(F)F [Example 67, 1-((S)-4-(4-(trifluoromethyl)phenyl)-3,4-dihydro-2H-pyrano[3,2-b]pyridin-4-yl)-3-((S)-1,1,1-trifluoropropan-2-yl)urea 2,2,2-trifluoroacetate] | 293 nM
2 | N#Cc1ccc(NC(=O)N[C@]2(c3ccc(OC(F)(F)F)c(F)c3)CCOc3cccnc32)cc1 [Example 68, (S)-1-(4-cyanophenyl)-3-(4-(3-fluoro-4-(trifluoromethoxy)phenyl)-3,4-dihydro-2H-pyrano[3,2-b]pyridin-4-yl)urea] | 23 nM
3 | O=C(Nc1ccc(Cl)nc1)N[C@]1(c2ccc(OC(F)(F)F)c(F)c2)CCOc2cccnc21 [Example 69, (S)-1-(6-chloropyridin-3-yl)-3-(4-(3-fluoro-4-(trifluoromethoxy)phenyl)-3,4-dihydro-2H-pyrano[3,2-b]pyridin-4-yl)urea] | 36 nM
4 | O=C(Nc1cccnc1)NC1(c2ccc(C(F)(F)F)cc2)CCOc2ccccc21 (stereo not drawn) [Example 70, 1-(pyridin-3-yl)-3-(4-(4-(trifluoromethyl)phenyl)chroman-4-yl)urea] | 1350 nM
5 | O=C(Nc1cccnc1)NC1(c2ccc(C(F)(F)F)cc2)CCCc2cccnc21 (stereo not drawn) [Example 71, 1-(pyridin-3-yl)-3-(8-(4-(trifluoromethyl)phenyl)-5,6,7,8-tetrahydroquinolin-8-yl)urea] | 143 nM
6 | O=C(Nc1cccc(F)c1)N[C@]1(c2ccc(C(F)(F)F)cc2)CCOc2cccnc21 [Example 72, (S)-1-(3-fluorophenyl)-3-(4-(4-(trifluoromethyl)phenyl)-3,4-dihydro-2H-pyrano[3,2-b]pyridin-4-yl)urea] | 112 nM
7 | O=C(Nc1cccnc1)N[C@]1(c2ccc(C(F)(F)F)cc2)CCOc2cccnc21 [Example 73, (S)-1-(pyridin-3-yl)-3-(4-(4-(trifluoromethyl)phenyl)-3,4-dihydro-2H-pyrano[3,2-b]pyridin-4-yl)urea] | 19 nM
8 | O=C(Nc1ccc(F)cc1)N[C@]1(c2ccc(C(F)(F)F)cc2)CCOc2cccnc21 [Example 74, (S)-1-(4-fluorophenyl)-3-(4-(4-(trifluoromethyl)phenyl)-3,4-dihydro-2H-pyrano[3,2-b]pyridin-4-yl)urea] | 25 nM
9 | O=S(=O)(N[C@]1(c2ccc(OC(F)(F)F)c(F)c2)CCOc2cccnc21)c1ccccc1 [Example 76, (S)—N-(4-(3-fluoro-4-(trifluoromethoxy)phenyl)-3,4-dihydro-2H-pyrano[3,2-b]pyridin-4-yl)benzenesulfonamide 2,2,2-trifluoroacetate] | 206 nM
10 | O=S(=O)(N[C@]1(c2ccc(OC(F)(F)F)c(F)c2)CCOc2cccnc21)c1cccnc1 [Example 77, (S)—N-(4-(3-fluoro-4-(trifluoromethoxy)phenyl)-3,4-dihydro-2H-pyrano[3,2-b]pyridin-4-yl)pyridine-3-sulfonamide 2,2,2-trifluoroacetate] | 1340 nM
11 | CC(C)(C)OC(=O)N[C@]1(c2ccc(OC(F)(F)F)c(F)c2)CCOc2cccnc21 [Example 78, (S)-tert-butyl (4-(3-fluoro-4-(trifluoromethoxy)phenyl)-3,4-dihydro-2H-pyrano[3,2-b]pyridin-4-yl)carbamate] | 58 nM
12 | Cn1cc(C(=O)NC2(c3ccc(C(F)(F)F)cc3)CCOc3cccnc32)ccc1=O (stereo not drawn) [Example 79, 1-methyl-6-oxo-N-(4-(4-(trifluoromethyl)phenyl)-3,4-dihydro-2H-pyrano[3,2-b]pyridin-4-yl)-1,6-dihydropyridine-3-carboxamide] | 334 nM
13 | O=C(NC1(c2ccc(C(F)(F)F)cc2)CCOc2cccnc21)c1ccc2c(c1)CNC2=O (stereo not drawn) [Example 80, 1-oxo-N-(4-(4-(trifluoromethyl)phenyl)-3,4-dihydro-2H-pyrano[3,2-b]pyridin-4-yl)isoindoline-5-carboxamide] | 21 nM
14 | O=C(N[C@]1(c2ccc3ccccc3c2)CCOc2cccnc21)c1ccc(=O)[nH]c1 [Example 81, (S)-N-(4-(naphthalen-2-yl)-3,4-dihydro-2H-pyrano[3,2-b]pyridin-4-yl)-6-oxo-1,6-dihydropyridine-3-carboxamide] | 124 nM
15 | O=C(Nc1cnccn1)N[C@]1(c2ccc(OC(F)(F)F)c(F)c2)CCOc2cccnc21 [Example 82, (S)-1-(4-(3-fluoro-4-(trifluoromethoxy)phenyl)-3,4-dihydro-2H-pyrano[3,2-b]pyridin-4-yl)-3-(pyrazin-2-yl)urea] | 134 nM
16 | COC(=O)c1ccc(NC(=O)N[C@]2(c3ccc(OC(F)(F)F)c(F)c3)CCOc3cccnc32)nc1 [Example 84, (S)-methyl 6-(3-(4-(3-fluoro-4-(trifluoromethoxy)phenyl)-3,4-dihydro-2H-pyrano[3,2-b]pyridin-4-yl)ureido)nicotinate] | 266 nM
17 | COC(=O)c1ccccc1NC(=O)N[C@]1(c2ccc(OC(F)(F)F)c(F)c2)CCOc2cccnc21 [Example 86, (S)-methyl 2-(3-(4-(3-fluoro-4-(trifluoromethoxy)phenyl)-3,4-dihydro-2H-pyrano[3,2-b]pyridin-4-yl)ureido)benzoate] | 19 nM
18 | COC(=O)c1ccc(NC(=O)N[C@]2(c3ccc(OC(F)(F)F)c(F)c3)CCOc3cccnc32)cn1 [Example 87, (S)-methyl 5-(3-(4-(3-fluoro-4-(trifluoromethoxy)phenyl)-3,4-dihydro-2H-pyrano[3,2-b]pyridin-4-yl)ureido)picolinate] | 24 nM
19 | O=C(Nc1ccc(Br)nc1)N[C@]1(c2ccc(OC(F)(F)F)c(F)c2)CCOc2cccnc21 [Example 88, (S)-1-(6-bromopyridin-3-yl)-3-(4-(3-fluoro-4-(trifluoromethoxy)phenyl)-3,4-dihydro-2H-pyrano[3,2-b]pyridin-4-yl)urea] | 115 nM
20 | O=C(Nc1ccncn1)N[C@]1(c2ccc(OC(F)(F)F)c(F)c2)CCOc2cccnc21 [Example 89, (S)-1-(4-(3-fluoro-4-(trifluoromethoxy)phenyl)-3,4-dihydro-2H-pyrano[3,2-b]pyridin-4-yl)-3-(pyrimidin-4-yl)urea] | 58 nM
21 | COC(=O)c1ccc(NC(=O)N[C@]2(c3ccc(OC(F)(F)F)c(F)c3)CCOc3cccnc32)cc1 [Example 90, (S)-methyl 4-(3-(4-(3-fluoro-4-(trifluoromethoxy)phenyl)-3,4-dihydro-2H-pyrano[3,2-b]pyridin-4-yl)ureido)benzoate] | 36 nM
22 | COC(=O)c1cccc(NC(=O)N[C@]2(c3ccc(OC(F)(F)F)c(F)c3)CCOc3cccnc32)c1 [Example 91, (S)-methyl 3-(3-(4-(3-fluoro-4-(trifluoromethoxy)phenyl)-3,4-dihydro-2H-pyrano[3,2-b]pyridin-4-yl)ureido)benzoate] | 19 nM
23 | O=C(Nc1cccnc1)N[C@]1(c2ccc(OC(F)(F)F)c(F)c2)CCOc2cccnc21 [Example 92, (S)-1-(4-(3-fluoro-4-(trifluoromethoxy)phenyl)-3,4-dihydro-2H-pyrano[3,2-b]pyridin-4-yl)-3-(pyridin-3-yl)urea] | 54 nM
24 | O=C(Nc1cccnc1Br)N[C@]1(c2ccc(OC(F)(F)F)c(F)c2)CCOc2cccnc21 [Example 93, (S)-1-(2-bromopyridin-3-yl)-3-(4-(3-fluoro-4-(trifluoromethoxy)phenyl)-3,4-dihydro-2H-pyrano[3,2-b]pyridin-4-yl)urea] | 22 nM
